Assay results published in patent US9623014B2 (Entasis Therapeutics Limited, priority 2012, dated 2017).
Values after ≈ are worked out from the molar mass of the structure shown. Counter-ions that a name gives are not always drawn.

Tests used:
[1] = test system: Pseudomonas aeruginosa AmpC (first AmpC column); test: MIC alone against β-lactamase producing strain; type: cell-based; details: substance alone, column 2
Protocol: (§1) Minimum Inhibitory Concentrations (MICs) were determined by the broth microdilution method in accordance with the Clinical and Laboratory Standards Institute (CLSI) guidelines. Clinical Laboratory Standards Institute: Methods for Dilution Antimicrobial Susceptability Tests for Bacteria That Grow Aerobically (8th Ed. (2009)) M07-A8. In brief, organism suspensions were adjusted to a 0.5 McFarland standard and further diluted to yield a final inoculum between 3×10^5 and 7×10^5 colony-forming units (CFU)/mL. Bacterial inocula were made in sterile, cation adjusted Mueller-Hinton Broth (Beckton Dickinson) for either Escherichia coli, Klebsiella pneumoniae, or Pseudomonas aeruginosa. Haemophilus influenzae bacterial inocula were made in sterile, cation adjusted Mueller-Hinton Broth (Beckton Dickinson) containing 0.5% yeast extract (Beckton Dickinson) plus 15 μg/ml Bovine Hematin (Sigma) and 15 μg/ml β-nicotinamide adenine dinucleotide (Sigma). Bacterial inocula were made in sterile, cation adjusted Mueller-Hinton Broth (Beckton Dickinson) for Staphylococcus aureus or sterile, cation adjusted Mueller-Hinton Broth containing 2.5% lysed horse blood (Hema Resource & Supply Inc.) for Streptococcus pneumoniae and Streptococcus pyogenes. An inoculum volume of 100 uL was added to wells (using a Tecan EVO robot) containing 2 uL of DMSO containing 2-fold serial dilutions of drug. […] All inoculated microdilution trays were incubated in ambient air at 35° C. for 18-24 hours. Following incubation, the lowest concentration of the drug that prevented visible growth as read at OD600 nm was recorded as the MIC. Performance of the assay was monitored by the use of laboratory quality-control strains and commercially available control compounds with defined MIC spectrums, in accordance with CLSI guidelines.

[2] = test system: Pseudomonas aeruginosa PER-1, OXA-10; test: MIC alone against β-lactamase producing strain; type: cell-based; details: Pseudomonas aeruginosa; substance alone
Protocol: as §1

[3] = test system: Pseudomonas aeruginosa AmpC (second AmpC column); test: MIC alone against β-lactamase producing strain; type: cell-based; details: substance alone, column 4
Protocol: as §1

[4] = test system: Klebsiella pneumoniae KPC2; test: MIC alone against β-lactamase producing strain; type: cell-based; details: Klebsiella pneumoniae, KPC2; substance alone
Protocol: as §1

S. aureus (MRSA) = test: MIC, broth microdilution (CLSI); type: cell-based, Staphylococcus aureus; details: Staphylococcus aureus, MRSA; compound alone
Protocol: as §1

S. aureus (MSSA) = test: MIC, broth microdilution (CLSI); type: cell-based, Staphylococcus aureus; details: Staphylococcus aureus, MSSA; compound alone
Protocol: as §1

Klebsiella pneumoniae = test: MIC, broth microdilution (CLSI); type: cell-based; details: Klebsiella pneumoniae; compound alone; read-out: MIC K. pneumon.
Protocol: as §1

Streptococcus pneumoniae = test: MIC, broth microdilution (CLSI); type: cell-based; details: Streptococcus pneumoniae; compound alone; read-out: MIC S. pneumon.
Protocol: as §1

Haemophilus influenzae = test: MIC, broth microdilution (CLSI); type: cell-based; details: Haemophilus influenzae; compound alone; read-out: MIC H. influenzae
Protocol: as §1

Pseudomonas aeruginosa = test: MIC, broth microdilution (CLSI); type: cell-based; details: Pseudomonas aeruginosa; compound alone; read-out: MIC P. aeruginosa
Protocol: as §1

Streptococcus pyogenes = test: MIC, broth microdilution (CLSI); type: cell-based; details: Streptococcus pyogenes; compound alone; read-out: MIC S. pyogenes
Protocol: as §1

Escherichia coli = test: MIC, broth microdilution (CLSI); type: cell-based; details: Escherichia coli; compound alone
Protocol: as §1

[5] = test system: Klebsiella pneumoniae KPC2; test: Synergy with β-lactams (MIC of β-lactam at fixed inhibitor concentration); type: cell-based; details: MIC of ceftazidime + inhibitor at fixed 4 ug/ml
Protocol: Synergy with β-lactams was assessed against several organisms producing a variety of β-lactamases belonging to different classes. Bush & Jacoby, Updated Functional Classification of β-Lactamases, Antimicrobial Agents and Chemotherapy, 54:969-76 (2010). In the assays, growth inhibitory activity (MIC) was measured using either two-fold dilutions of the partner β-lactam at a fixed concentration of compounds of formula (I). Compounds were prepared in DMSO, and MIC determinations using the compound of formula (I)/β-lactam combinations were done according to the CLSI guidelines. Clinical Laboratory Standards Institute: Methods for Dilution Antimicrobial Susceptability Tests for Bacteria That Grow Aerobically (8th Ed. (2009)) M07-A8. Synergy was defined as a four-fold or more reduction in the MIC of the β-lactam in the presence of the compound of formula (I), compared to the β-lactam alone.

Row | Compound | MIC [1] [µg/mL] | MIC [2] [µg/mL] | MIC [3] [µg/mL] | MIC [4] [µg/mL] | MIC (S. aureus (MRSA)) [µg/mL] | MIC (S. aureus (MSSA)) [µg/mL] | MIC (Klebsiella pneumoniae) [µg/mL] | MIC (Streptococcus pneumoniae) [µg/mL] | MIC (Haemophilus influenzae) [µg/mL] | MIC (Pseudomonas aeruginosa) [µg/mL] | MIC (Streptococcus pyogenes) [µg/mL] | MIC (Escherichia coli) [µg/mL] | MIC Klebsiella pneumoniae KPC2 [5] [µM]
1 | COCC1=C[C@@H](C(N)=O)N2C[C@@H]1N(OS(=O)(=O)[O-])C2=O.[Na+] [Example 9, (2S,5R)-2-carbamoyl-4-(methoxymethyl)-7-oxo-1,6-diazabicyclo[3.2.1]oct-3-en-6-yl hydrogen sulfate sodium salt] | > 16 | > 16 | > 16 | > 16 | – | – | – | – | – | – | – | – | –
2 | CC1=C[C@@H](C(=O)NCCN)N2C[C@@H]1N(OS(=O)(=O)O)C2=O [Example 6, (2S,5R)-2-(2-aminoethylcarbamoyl)-4-methyl-7-oxo-1,6-diazabicyclo[3.2.1]oct-3-en-6-yl hydrogen sulfate] | 16 | 16 | 16 | 0.25 | > 200 | 200 | > 200 | 25 | > 200 | 25 | 25 | > 200 | –
3 | CC(C)C1=C[C@@H](C#N)N2C[C@@H]1N(OS(=O)(=O)O)C2=O.[Na] [Example 5, (2S,5R)-2-cyano-4-isopropyl-7-oxo-1,6-diazabicyclo[3.2.1]oct-3-en-6-yl hydrogen sulfate sodium salt] | – | – | – | – | > 200 | > 200 | > 200 | 100 | 100 | > 200 | 50 | > 200 | –
4 | CC(C)(C)OC(=O)N1CCC(NC(=O)[C@@H]2C=C[C@@H]3CN2C(=O)N3OS(=O)(=O)O)CC1 [Example 14, (2S,5R)-2-(1-(tert-butoxycarbonyl)piperidin-4-ylcarbamoyl)-7-oxo-1,6-diazabicyclo[3.2.1]oct-3-en-6-yl sulfate sodium salt] | – | – | – | – | > 200 | 100 | > 200 | 100 | 12.5 | > 200 | 100 | > 200 | –
5 | C=C(C)C1=C[C@@H](COC)N2C[C@@H]1N(OS(=O)(=O)O)C2=O.[Na] [Example 7, (2S,5R)-2-(methoxymethyl)-7-oxo-4-(prop-1-en-2-yl)-1,6-diazabicyclo[3.2.1]oct-3-en-6-yl hydrogen sulfate sodium salt] | – | – | – | – | > 200 | > 200 | > 200 | > 200 | > 200 | > 200 | > 200 | > 200 | –
6 | CC(C)(O/N=C(\C(=O)N[C@@H]1C(=O)N2C(C(=O)[O-])=C(C[n+]3ccccc3)CS[C@H]12)c1csc(N)n1)C(=O)O [Ceftazidime, ceftazidime, reference compound] | 128 (≈ 234 µM) | 256 (≈ 468 µM) | 32 (≈ 58.5 µM) | 256 (≈ 468 µM) | – | – | – | – | – | – | – | – | –
7 | CC(C)C1=C[C@@H](C(N)=O)N2C[C@@H]1N(OS(=O)(=O)O)C2=O.[Na] [Example 4, (2S,5R)-2-carbamoyl-4-isopropyl-7-oxo-1,6-diazabicyclo[3.2.1]oct-3-en-6-yl hydrogen sulfate sodium salt] | > 64 | > 64 | > 64 | > 64 | > 200 | – | > 200 | 200 | > 200 | > 200 | 50 | > 200 | –
8 | CC1=C[C@@H](C(N)=O)N2C[C@@H]1N(OS(=O)(=O)O)C2=O.[Na] [Example 1, (2S,5R)-2-carbamoyl-4-methyl-7-oxo-1,6-diazabicyclo[3.2.1]oct-3-en-6-yl hydrogen sulfate sodium salt] | 64 | > 64 | > 64 | 8 | > 200 | 25 | 50 | 6.25 | – | 200 | 3.13 | 50 | –
9 | COC[C@@H]1C=C(C(N)=O)[C@@H]2CN1C(=O)N2OS(=O)(=O)O [Example 12, (2S,5R)-4-carbamoyl-2-(methoxymethyl)-7-oxo-1,6-diazabicyclo[3.2.1]oct-3-en-6-yl hydrogen sulfate, monosodium salt] | > 64 | > 64 | > 64 | 64 | > 200 | – | 50 | 25 | 100 | > 200 | 25 | 100 | –
10 | CC1=C[C@@H](C(=O)NC2CCNCC2)N2C[C@@H]1N(OS(=O)(=O)O)C2=O [Example 3, (2S,5R)-4-methyl-7-oxo-2-(piperidinium-4-ylcarbamoyl)-1,6-diazabicyclo[3.2.1]oct-3-en-6-yl sulfate] | – | – | – | – | > 200 | > 200 | > 200 | 50 | 3.13 | > 200 | 50 | > 200 | –
11 | CC1=C[C@@H](C#N)N2C[C@@H]1N(OS(=O)(=O)O)C2=O.[Na] [Example 2, (2S,5R)-2-cyano-4-methyl-7-oxo-1,6-diazabicyclo[3.2.1]oct-3-en-6-yl hydrogen sulfate sodium salt] | > 64 | > 64 | > 64 | 64 | 100 | 100 | 100 | 25 | 12.5 | > 200 | 3.13 | 100 | –
12 | CC1=C[C@@H](CO)N2C[C@@H]1N(OS(=O)(=O)[O-])C2=O.[Na+] [Example 16, (2S,5R)-2-(hydroxymethyl)-4-methyl-7-oxo-1,6-diazabicyclo[3.2.1]oct-3-en-6-yl hydrogen sulfate Sodium Salt] | > 16 | > 16 | > 16 | 8 | > 200 | 100 | 100 | 50 | 50 | > 200 | 50 | 100 | –
13 | CC(=O)NCCC1=C[C@@H](C(N)=O)N2C[C@@H]1N(OS(=O)(=O)[O-])C2=O.[Na+] [Ex. 25, (2S,5R)-4-(2-acetamidoethyl)-2-carbamol-7-oxo-1,6-diazabicyclo[3.2.1]oct-3-en-6-yl sulfate sodium salt] | – | – | – | – | – | – | – | – | – | – | – | – | >8
14 | COCC1=C[C@@H](COC)N2C[C@@H]1N(OS(=O)(=O)[O-])C2=O.[Na+] [Example 13, (2S,5R)-2,4-bis(methoxymethyl)-7-oxo-1,6-diazabicyclo[3.2.1]oct-3-en-6-yl sulfate Sodium salt] | > 16 | > 16 | > 16 | > 16 | > 200 | > 200 | > 200 | 50 | 200 | > 200 | 100 | > 200 | –
15 | CC1=C[C@@H](C(=O)NCc2cc(=O)c(O)c[nH]2)N2C[C@@H]1N(OS(=O)(=O)O)C2=O [Example 8, (2S,5R)-2-((5-hydroxy-4-oxo-1,4-dihydropyridin-2-yl)methylcarbamoyl)-4-methyl-7-oxo-1,6-diazabicyclo[3.2.1]oct-3-en-6-yl hydrogen sulfate sodium salt] | > 16 | > 16 | > 16 | > 16 | – | – | – | – | – | – | – | – | –
